Reference: US8598145B2, “Mitochondrially delivered anti-cancer compounds” (priority 2008, dated 2013)

Key:
H9c2 = experiment: MTT viability assay (IC50); type: cell-based, rat; settings: H9c2, ~60% confluency
Text: (§1) The following cell lines used in this study were obtained from ATCC, unless specified otherwise: Human T lymphoma cells Jurkat, human mesothelioma cells Meso-I, MM-BI, Ist-Mes, Ist-Mes-2 (Pass, H. I. et al. Characteristics of nine newly derived mesothelioma cell lines. Ann. Thorac. Surg. 59, 835-844 (1995)), human breast cancer cells MCF-7 (erbB2-low) and MDA-MB-453 (erbB2-high), human colorectal cells HCT-116, human hepatocarcinoma cells Huh-7, mouse mesothelioma cells AE17 (Jackaman, C. et al. IL-2 intratumoral immunotherapy enhances CD8+ T cells that mediate destruction of tumor cells and tumor-associated vasculature: a novel mechanism for IL-2. J. Immunol. 171, […] (2003), human non-malignant mesothelial cells Met-5A, […] (Claycomb, W. C. et al. HL-1 cells: a cardiac muscle cell line that contracts and retains phenotypic characteristics of the adult cardiomyocyte. Proc. Natl. Acad. Sci. USA 95, 2979-2984 […]) and H9c2, and the human endothelial-like cells EAhy926 (Edgell, C. J., McDonald, C. C. & Graham, J. B. Permanent cell line expressing human factor VIII-related antigen established by hybridization. Proc. Natl. Acad. Sci. USA 80, 3734-3737 (1983)). Jurkat cells were grown in the RPMI medium while DMEM was used for other malignant cell lines and for Met-5A cells, supplemented with 10% FCS and antibiotics. HL-1 cells, maintained in fibronectin/gelatine-coated dishes, were grown in the Claycomb medium supplemented with noradrenalin (Claycomb, W. C. et al. HL-1 cells: a cardiac muscle cell line that contracts and retains phenotypic characteristics of the adult cardiomyocyte. Proc. Natl. Acad. Sci. USA 95, 2979-2984 […]), EAhy926 cells were grown in complete DMEM supplemented with HAT (Edgell, C. J., McDonald, C. C. & Graham, J. B. Permanent cell line expressing human factor VIII-related antigen established by hybridization. Proc. Natl. Acad. Sci. USA 80, 3734-3737 (1983)). Cells deficient in mtDNA (ρ^0 phenotype) were prepared as detailed in Weber, T. et al., (Mitochondria play a central role in apoptosis induced by α-tocopheryl succinate, an agent with anticancer activity. Comparison with receptor-mediated pro-apoptotic signaling. Biochemistry 42, 4277-4291 (2003)). Acquisition of the ρ^0 phenotype was confirmed by lack of expression by the cells of the mtDNA-encoded cytochrome c oxidase subunit II (COXII not shown). Chinese hamster lung fibroblasts deficient in complex I (B10 cells) (See, B. B. et al. Molecular remedy of complex I defects: rotenone-insensitive internal NADH-quinone oxidoreductase of Saccharomyces cerevisiae mitochondria restores the NADH oxidase activity of complex I-deficient mammalian cells. Proc. Natl. Acad. Sci. USA 95, 9167-9171 (1998)) and complex II (CybL^−/−; B9 cells) (Oostveen, F. G., Au, H. C., Meijer, P. J. & Scheffler, I. E. A Chinese hamster mutant cell line with a defect in the integral membrane protein CII-3 of complex II of the mitochondrial electron transport chain. J. Biol. Chem. 270: 26104-26108 (1995)) as well as the parental cells (B1 cells) (Oostveen, F. G., Au, H. C., Meijer, P. J. & Scheffler, I. E. A Chinese hamster mutant cell line with a defect in the integral membrane protein CII-3 of complex II of the mitochondrial electron transport chain. J. Biol. Chem. 270: 26104-26108 (1995)) were grown in DMEM with 10% FCS, antibiotics, 10 mg/ml glucose and non-essential aminoacids.
(§2) Toxicity of α-TOS, VE11S (“VES”), MitoVE3S, MitoVE5S, MitoVE7S, MitoVE9S, MitoVE11S (“MitoVES”), MitoVE11AE (“MitoVEAE”), MitoVE11F (“MitoVEF”), MitoVE11M (“MitoVEM”), and VES4TPP towards cancer cells was assessed on the basis of IC50, as detailed in Turanek, J., et al. ((2008). Liposomal formulation of vitamin E analogs as an efficient and selective anti-cancer treatment. Clin. Cancer Res. (submitted)). […]

HL-1 = experiment: MTT viability assay (IC50); type: cell-based, rat; settings: HL-1, ~60% confluency
Text: as §1, §2

MCF-7 = experiment: MTT viability assay (IC50); type: cell-based, human; settings: MCF-7, ~60% confluency
Text: as §1, §2

Meso-2 = experiment: MTT viability assay (IC50); type: cell-based, human; settings: Meso-2, ~60% confluency
Text: as §1, §2

EAhy926 = experiment: MTT viability assay (IC50); type: cell-based, human
Text: as §1, §2

Ist-Mes-2 = experiment: MTT viability assay (IC50); type: cell-based, human; settings: Ist-Mes-2, ~60% confluency
Text: as §1, §2

HCT-116 = experiment: MTT viability assay (IC50); type: cell-based, human; settings: HCT-116, ~60% confluency
Text: as §1, §2

Jurkat = experiment: MTT viability assay (IC50); type: cell-based, human
Text: as §1, §2

Ist-Mes = experiment: MTT viability assay (IC50); type: cell-based, human; settings: ~60% confluency
Text: as §1, §2

Met5A = experiment: MTT viability assay (IC50); type: cell-based, human; settings: ~60% confluency
Text: as §1, §2

MM-BI = experiment: MTT viability assay (IC50); type: cell-based, human; settings: ~60% confluency
Text: as §1, §2

MDA-MB-453 = experiment: MTT viability assay (IC50); type: cell-based, human; settings: MDA-MB-453, ~60% confluency
Text: as §1, §2

[1] = system: MS cells derived from MCF7 cells; experiment: Drug induced cell death in mammosphere cells (FIG. 8); type: cell-based, human; settings: for sensitivity of MS cells to drug induced cell death: 5 μM MitoVES, 50 μM α-TOS or 10 μM parthenolide
Protocol: Adherent MCF7 cells and the corresponding mammosphere cells (MS) were cultured and assessed for morphological changes by microscopy (A) and for expression levels of markers as indicators of “sternness” by RT-PCR (B) and flow cytometry (C), including the expression of CD44 and CD24 (D). The adherent MCF7 cells (E) and the MS cells (F) were treated with 5 μM MitoVES, 50 μM α-TOS or 10 μM parthenolide and assessed for their sensitivity to drug induced cell death. […] Adherent MCF7 cells (I) and MS cells (J) were treated for 3 h with α-TOS (50 μM) or MitoVES homologues containing different lengths in the aliphatic side chain (5 μM each, either 11, 7 or 5 carbon chain in length) and the treated cells assessed for production of reactive oxygen species (ROS) by flow cytometry.

[2] = EAhy926 treated at 100% confluency (top lines)
[3] = EAhy926 treated at ~50% confluency (bottom lines)
[4] = Jurkat, treated at 0.5 × 10^6 per ml, MTT viability curves
[5] = Table VI: Jurkat 0.5 × 10^6 per ml, analogs added as EtOH solution, MTT

| SMILES | IC50 (H9c2) | IC50 (HL-1) | IC50 (MCF-7) | IC50 (Meso-2) | IC50 (EAhy926; [2]) | IC50 (EAhy926; [3]) | IC50 (Ist-Mes-2) | IC50 (HCT-116) | IC50 (Jurkat; [4]) | IC50 (Jurkat; [5]) | IC50 (Ist-Mes) | IC50 (Met5A) | IC50 (MM-BI) | IC50 (MDA-MB-453) | sensitivity of MS cells to drug induced cell death [1] | apoptosis of MS cells ([1]; within 5-6 h after adding the drug) |
| --- | --- | --- | --- | --- | --- | --- | --- | --- | --- | --- | --- | --- | --- | --- | --- | --- |
| Cc1c(C)c2c(c(C)c1OC(=O)CCC(=O)[O-])CCC(C)(CCCCCCCCCCC[P+](c1ccccc1)(c1ccccc1)c1ccccc1)O2 (stereo not shown) [MitoVE11S] | 54 ± 8 µM | 48 ± 6 µM | 1.9 ± 0.5 µM | 2.4 ± 0.5 µM | 32 ± 6 µM | 0.7 ± 0.2 µM | 1.1 ± 0.25 µM | 2.8 ± 0.8 µM | 0.48 ± 0.1 µM | 0.48 ± 0.1 µM | 2.2 ± 0.3 µM | 21 ± 4 µM | 1.4 ± 0.3 µM | 3.3 ± 0.7 µM | very sensitive | > 90% |
| Cc1c(C)c2c(c(C)c1OC(=O)CCC(=O)O)CC[C@@](C)(CCC[C@H](C)CCC[C@H](C)CCCC(C)C)O2 [α-TOS, α-tocopheryl succinate, reference compound] | > 100 µM | > 100 µM | 22 ± 4 µM | 29 ± 5 µM | > 100 µM | 9.5 ± 2.7 µM | 21 ± 3 µM | 31 ± 6 µM | 18 ± 3 µM | 18 ± 3 µM | 24 ± 5 µM | 69 ± 8 µM | 26 ± 4 µM | 28 ± 5 µM | resistant | – |
